Reference: US20250332112A1, “IONIZABLE CATIONIC LIPIDS FOR LIPID NANOPARTICLES” (GENEVANT SCIENCES GMBH, priority 2022, published 2025)

Experiments:
[1] = system: luciferase activity in the liver; assay: Luciferase activity in liver after intravenous luciferase mRNA LNP; format: in vivo; settings: 0.5 mg/kg IV, 6 h post-IV administration, BALB/c mice (n = 4)
Experimental: Frozen aliquots of liver were thawed and homogenized in 1 mL of 1×CCLR (Cell Culture Lysis Reagent) using a FastPrep® homogenizer. The homogenate was then centrifuged at 16,000 RPM for 10 minutes at 4° C. Twenty (20) μL of the supernatant was loaded into a 96-well white plate and luminescence measured following addition of luciferase reagent (Promega Luciferase Assay System). Luciferase activity was determined by comparing luminescence of the homogenized samples to luciferase protein standards. To account for any quenching of luminescence by components in the liver homogenate, luciferase was added to the liver homogenates of untreated animals and the resulting luminescence measured. The resulting quench factor was applied to all samples to obtain the corrected luciferase activity, and normalized per unit mass of tissue analyzed.

[2] = Parent ionizable lipid remaining in liver at 6 h after luciferase mRNA LNP (LC-MS); format: in vivo; settings: 6 h after IV 0.5 mg/kg Luciferase mRNA LNP
Experimental: Liver tissues were treated with PBS and homogenized with a FastPrep machine, 3 cycles of 5 m/s×15 s. Homogenates from the PBS-treated control animals was pooled and used for standard curve preparation. Samples were extracted into a deep well plate with 250 μL of an internal suitability standard. Plates were centrifuged for 15 min at 4° C. and 2000 rpm. Analysis was performed using an Agilent 6520 QTOF coupled to an Agilent 1290 UHPLC, using reverse-phase LC separation. Quantitation of the ionizable lipid was by MS/MS against a calibration curve spiked into appropriately matched blank matrix. Calibration used a similar class of synthetic lipid as internal standard.
At 6 h post-dose, some treatment groups reported lower levels of novel ionizable lipid in mouse liver compared to the benchmark (Tables 16-18).

[3] = Particle characteristics of LNPs containing luciferase mRNA and novel ionizable lipids; format: physicochemical; settings: luciferase mRNA LNP 1.6:54.6:32.8:10.9
Experimental: The lipid solution contains 4 components: a PEG-conjugated lipid, an ionizable lipid, cholesterol, and a phospholipid (e.g., DSPC). Lipid stocks were prepared using the lipid identities and molar ratios as described, to achieve a total concentration of ˜7 mg/mL in 100% ethanol. Firefly luciferase mRNA (TriLink Biotechnologies, L-7202) or ornithine transcarbamylase (OTC) mRNA (TriLink Biotechnologies, custom designed) was diluted in acetate, pH 5 buffer and nuclease free water to achieve a target concentration of 0.366 mg/mL mRNA in 100 mM acetate, pH 5. Equal volumes of the lipid and nucleic acid solutions were blended at a flow rate of 400 mL/min through a T-connector, and diluted with ˜4 volumes of PBS, pH 7.4. Formulations were placed in Slide-A-Lyzer dialysis units (MWCO 10,000) and dialyzed overnight against 10 mM Tris, 500 mM NaCl, pH 8 buffer. Following dialysis, the formulations were concentrated to ˜0.6 mg/mL using VivaSpin concentrator units (MWCO 100,000) and dialyzed overnight against 5 mM Tris, 10% sucrose, pH 8 buffer. Formulations were filtered through a 0.2 μm syringe filter (PES membrane). Nucleic acid concentration was determined by the RiboGreen assay. Particle size and polydispersity were determined using a Malvern Nano Series Zetasizer.
LNP formulations containing novel ionizable lipids all produced stable particles with high encapsulation efficiency (Tables 1-7).

[4] = Table 18, female BALB/c mice (n = 4)
[5] = Table 16, female BALB/c mice (n = 4)

Row | SMILES | Luc Activity ([1]; Table 14) | Parent ionizable lipid remaining in liver, Average [2, 4] | Final Product % EE ([3]; Table 7) | Final Product PDI ([3]; Table 7) | Final Product Z-avg ([3]; Table 7) | Luc Activity ([1]; Table 10) | Parent ionizable lipid remaining in liver, Average [2, 5] | Final Product % EE ([3]; Table 3) | Final Product PDI ([3]; Table 3) | Final Product Z-avg ([3]; Table 3) | further results
1 | CCCCCCCCCCN(C(=O)CCCN(C)C)C(CCCCCCCCC)CCCCCCC(F)(F)C(=O)OCCC(CCCCCCC)CCCCCCC (centres unmarked) [Compound 18, 3-Heptyldecyl 9-(N-decyl-4-(dimethylamino)butanamido)-2,2-difluorooctadecanoate] |  |  |  |  |  |  |  |  |  |  | Luc Activity ([1]; Table 13): 4.32E+07 pg/g liver; Parent ionizable lipid remaining in liver, Average ([2]; Table 17, female mice (n = 4)): 17.02 nmol/g liver; Final Product % EE ([3]; Table 6): 98%; Final Product PDI ([3]; Table 6): 0.07; Final Product Z-avg ([3]; Table 6): 73 nm
2 | CCCCCCCCCCN(C(=O)CCCN(C)C)C(CCCCCCCCC)CCCCCCC(F)(F)C(=O)OC(CCCCC)CCCCC (centres unmarked) [Compound 19, Undecan-6-yl 9-(N-decyl-4-(dimethylamino)butanamido)-2,2-difluorooctadecanoate] |  |  |  |  |  |  |  |  |  |  | Luc Activity ([1]; Table 13): 1.25E+06 pg/g liver; Parent ionizable lipid remaining in liver, Average ([2]; Table 17, female mice (n = 4)): 20.22 nmol/g liver; Final Product % EE ([3]; Table 6): 99%; Final Product PDI ([3]; Table 6): 0.09; Final Product Z-avg ([3]; Table 6): 71 nm
3 | CCCCCCCCCCN(C(=O)CCCN(C)C)C(CCCCCCCCC)CCCCCCC(F)(F)C(=O)OCCC(CCCCC)CCCCC (centres unmarked) [Compound 20, 3-Pentyloctyl 9-(N-decyl-4-(dimethylamino)butanamido)-2,2-difluorooctadecanoate] | 2.71E+07 pg/g liver | 1.82 nmol/g liver | 98% | 0.08 | 72 nm |  |  |  |  |  | 
4 | CCCCCCCCCCCCCOC(=O)CCCCC(CCCCCCCCCC)N(CCN(C)C)C(=O)CCCCC(=O)OCC(CCCC)CCCCCC (centres unmarked) [Compound 23, tridecyl 6-{6-[(2-butyloctyl)oxy]-N-[2-(dimethylamino)ethyl]-6-oxohexanamido}hexadecanoate] |  |  |  |  |  | 4.44E+06 pg/g liver | 31.85 nmol/g liver | 97% | 0.06 | 69 nm | 
5 | CCCCCCCCCCCCCOC(=O)CCCCC(CCCCCCCCCC)N(CCN(C)C)C(=O)CCCCCCC(=O)OCC(CCCC)CCCCCC (centres unmarked) [Compound 24, Tridecyl 6-(8-((2-butyloctyl)oxy)-N-(2-(dimethylamino)ethyl)-8-oxooctanamido)-hexadecanoate] |  |  |  |  |  | 3.98E+06 pg/g liver | 35.16 nmol/g liver | 96% | 0.08 | 72 nm | 
6 | CCCCCCCCCCN(C(=O)CCCN(C)C)C(CCCCCCCCC)CC(=O)OCC(CCCCCC)CCCCCCCC (centres unmarked) [Compound 32, 2-hexyldecyl 3-[N-decyl-4-(dimethylamino)-butanamido]dodecanoate] |  |  |  |  |  | 3.07E+07 pg/g liver | 21.66 nmol/g liver | 99% | 0.02 | 85 nm | 
7 | CCCCCCCCCC(CCCCCCC(F)C(=O)OCCC(CCCCC)CCCCC)N(CCCCCC(F)C(=O)OCCC(CCCCC)CCCCC)C(=O)CCCN(C)C (centres unmarked) [Compound 34, 3-pentyloctyl 9-[4-(dimethylamino)-N-{6-fluoro-7-oxo-7-[(3-pentyloctyl)oxy]heptyl}butanamido]-2-fluorooctadecanoate] | 1.91E+06 pg/g liver | 1.78 nmol/g liver | 99% | 0.10 | 70 nm |  |  |  |  |  | 
8 | CCCCCCCCCCON(C(=O)CCCN(C)C)C(CCCCCCCCC)CCCCCCC(F)C(=O)OCCC(CCCCC)CCCCC (centres unmarked) [Compound 38, 3-pentyloctyl 9-[N-(decyloxy)-4-(dimethylamino)butanamido]-2-fluorooctadecanoate] | 2.13E+07 pg/g liver | 3.14 nmol/g liver | 98% | 0.17 | 65 nm |  |  |  |  |  | 
9 | CCCCCCCCCCON(C(=O)CCCN(C)C)C(CCCCCCCCCC)CCCCCCC(F)(F)C(=O)OCCC(CCCCC)CCCCC (centres unmarked) [Compound 39, 3-pentyloctyl 9-[N-(decyloxy)-4-(dimethylamino)butanamido]-2,2-difluorononadecanoate] | 4.30E+06 pg/g liver | 2.91 nmol/g liver | 98% | 0.19 | 59 nm |  |  |  |  |  | 
10 | CCCCCCCCCCON(C(=O)CCCCN(C)C)C(CCCCCCCCCC)CCCCCC(=O)OCC(CCCCCC)CCCCCCCC (centres unmarked) [Compound 47, 2-Hexyldecyl 7-(N-(decyloxy)-5-(dimethylamino)pentanamido)heptadecanoate] | 8.09E+07 pg/g liver | 54.78 nmol/g liver | 98% | 0.07 | 77 nm |  |  |  |  |  | 
11 | CCCCC/C=C\CCCN(CCC/C=C\CCCCC)NC(=O)CC(CCCCCCCCC)N(CCCN(C)C)C(=O)CCCCCCCCC (centres unmarked) [Compound 54, N-(1-(2,2-di((Z)-Dec-4-en-1-yl)hydrazineyl)-1-oxododecan-3-yl)-N-(3-(dimethylamino)-propyl)decanamide] |  |  |  |  |  | 3.28E+06 pg/g liver | 17.78 nmol/g liver | 97% | 0.05 | 82 nm | 
12 | CCCCC/C=C\CCCC(CCC/C=C\CCCCC)=NNC(=O)CC(CCCCCCCCC)N(CCCN(C)C)C(=O)C(CCCCCC)CCCCCCCC (centres unmarked) [Compound 57, N-(3-(dimethylamino)propyl)-N-(1-(2-((6Z,15Z)-henicosa-6,15-dien-11-ylidene)hydrazineyl)-1-oxododecan-3-yl)-2-hexyldecanamide] |  |  |  |  |  | 2.43E+06 pg/g liver | 15.88 nmol/g liver | 80% | 0.03 | 84 nm | 
13 | CCCCC/C=C\CCCC(CCC/C=C\CCCCC)NNC(=O)CC(CCCCCCCCC)N(CCCN(C)C)C(=O)CCCCCCCCC (centres unmarked) [Compound 59, N-(3-(Dimethylamino)propyl)-N-(1-(2-((6Z,15Z)-henicosa-6,15-dien-11-yl)hydrazineyl)-1-oxododecan-3-yl)decanamide] |  |  |  |  |  | 1.12E+06 pg/g liver | 22.67 nmol/g liver | 99% | 0.07 | 82 nm | 
14 | CCCCCCCCCCC(CCCCC(=O)OCc1cc(CCCCCC)cc(CCCCCC)c1)N(CCCN(C)C)C(=O)CCCCCCCCC (centres unmarked) [Compound 60, (3,5-dihexylphenyl)methyl 6-{N-[3-(dimethylamino)propyl]decanamido}hexadecanoate] |  |  |  |  |  | 8.23E+06 pg/g liver | 35.39 nmol/g liver | 99% | 0.05 | 73 nm | 
15 | CCCCCCCCCCCCC(=O)N(CCCN(C)C)C(CCCCCCCCCC)CCCCC(=O)OCc1cc(CCCCCC)cc(CCCCCC)c1 (centres unmarked) [Compound 61, 3,5-Dihexylbenzyl 6-(N-(3-(dimethylamino)propyl)tridecanamido)hexadecanoate] |  |  |  |  |  | 2.45E+07 pg/g liver | 27.21 nmol/g liver | 99% | 0.05 | 76 nm | 
16 | CCCCCCCCCCC(CCCCC(=O)OCc1cc(CCCCCC)cc(CCCCCC)c1)N(CCCN(C)C)C(=O)C(CCCCCC)CCCCCCCC (centres unmarked) [Compound 62, 3,5-Dihexylbenzyl 6-(N-(3-(dimethylamino)propyl)-2-hexyldecanamido)hexadecanoate] |  |  |  |  |  | 7.84E+06 pg/g liver | 20.17 nmol/g liver | 98% | 0.08 | 67 nm | 
